{"source": "patent US9656960B2", "about": "“Inhibitors of microsomal triglyceride transfer protein and apo-B secretion” (Surface Logix, Inc., priority 2005, dated 2017)", "key": {"[1]": {"test_system": "ApoA1", "assay": "ApoA1 secretion assay in Caco-2 cells (ELISA)", "assay_type": "cell-based", "settings": "Homo sapiens", "description": "(§1) The following protocol is written for HepG2 cells types, but the same or similar protocol may be used with other cell types, such as Caco-2 cells.\n(§2) HepG2 cells were grown in MEM Eagle's medium containing 10% fetal bovine serum with 1% penicillin/streptomycin in an incubator (5% CO2, 100% relative humidity, 37° C.). At ca. 85% confluency, the cells were treated with test compounds (0.2% DMSO) at appropriate concentrations in triplicate. After 24 hour incubation with the test compounds, growth media were collected from each sample. Concentrations for apo-B and apoA1 were determined using ELISA. Mouse anti-human Apo-B and ApoA1 antibody and Alk-phos conjugated secondary antibody (goat) was used in ELISA. Triplicate data in six half-log concentrations were used to calculate an IC50 value for each compound."}, "[2]": {"test_system": "Caco-2", "assay": "Bidirectional Caco-2 permeability assay", "assay_type": "in vitro ADME", "settings": "bidirectional Caco-2 assay, analysis by fluorescence and HPLC", "description": "The following table (Table 1) depicts the activity of several compounds of Formula I or II according to the present invention. Permeability was measured in a bidirectional Caco-2 assay with analysis by fluorescence and HPLC."}, "[3]": {"test_system": "Apo-B", "assay": "Apo-B secretion assay in Caco-2 cells (ELISA)", "assay_type": "cell-based", "settings": "Homo sapiens", "description": "as §1, §2"}, "[4]": {"test_system": "Apo-B", "assay": "Apo-B secretion assay in HepG2 cells (ELISA)", "assay_type": "cell-based", "settings": "Homo sapiens, 24 hour incubation, ELISA of growth media", "description": "A test compound is considered to be active if it is active in any of the following screens. The activity of a compound according to the invention can be assessed by measuring inhibition of apo B secretion in HepG2 cells.\nas §1, §2"}, "[5]": {"test_system": "ApoA1", "assay": "ApoA1 secretion assay in HepG2 cells (ELISA)", "assay_type": "cell-based", "settings": "Homo sapiens, 24 hour incubation, ELISA of growth media", "description": "as §1, §2"}}, "data": [{"smiles": "O=C(Nc1ccc2c(c1)CCN(C(=S)NCc1ccccc1)C2)c1ccccc1-c1ccc(C(F)(F)F)cc1", "note": "[Compound 10]", "values": [{"measurement": "IC50", "setting": "[1]", "result": "> 30000", "unit": "nM"}, {"measurement": "Caco-2 (10-6 cm/sec)", "setting": "[2]", "result": "0 10-6 cm/sec"}, {"measurement": "IC50", "setting": "[3]", "result": 40, "unit": "nM"}, {"measurement": "IC50", "setting": "[4]", "result": 3, "unit": "nM"}, {"measurement": "IC50", "setting": "[5]", "result": "> 30000", "unit": "nM"}]}, {"smiles": "COc1cccc(C(=O)Nc2ccc3c(c2)CCN(C(=O)Oc2ccccc2)C3)c1-c1ccc(C(F)(F)F)cc1", "note": "[Compound 11]", "values": [{"measurement": "IC50", "setting": "[1]", "result": "> 30000", "unit": "nM"}, {"measurement": "Caco-2 (10-6 cm/sec)", "setting": "[2]", "result": "0 10-6 cm/sec"}, {"measurement": "IC50", "setting": "[3]", "result": 7.7, "unit": "nM"}, {"measurement": "IC50", "setting": "[4]", "result": 1.6, "unit": "nM"}, {"measurement": "IC50", "setting": "[5]", "result": "> 30000", "unit": "nM"}]}, {"smiles": "O=C(Nc1ccc2c(c1)CCN(C(=O)OCc1ccccc1)C2)c1ccccc1-c1ccc(C(F)(F)F)cc1", "note": "[Compound 12]", "values": [{"measurement": "IC50", "setting": "[1]", "result": "> 30000", "unit": "nM"}, {"measurement": "Caco-2 (10-6 cm/sec)", "setting": "[2]", "result": "0 10-6 cm/sec"}, {"measurement": "IC50", "setting": "[3]", "result": 110, "unit": "nM"}, {"measurement": "IC50", "setting": "[4]", "result": 220, "unit": "nM"}, {"measurement": "IC50", "setting": "[5]", "result": "> 30000", "unit": "nM"}]}, {"smiles": "COCCCNC(=S)N1CCc2cc(NC(=O)c3ccccc3-c3ccc(C(F)(F)F)cc3)ccc2C1", "note": "[Compound 13]", "values": [{"measurement": "IC50", "setting": "[1]", "result": "> 30000", "unit": "nM"}, {"measurement": "Caco-2 (10-6 cm/sec)", "setting": "[2]", "result": "30 10-6 cm/sec"}, {"measurement": "IC50", "setting": "[3]", "result": 15, "unit": "nM"}, {"measurement": "IC50", "setting": "[4]", "result": 30, "unit": "nM"}, {"measurement": "IC50", "setting": "[5]", "result": "> 30000", "unit": "nM"}]}, {"smiles": "COc1cccc(C(=O)Nc2ccc3c(c2)CCN(c2nc(-c4ccccc4)cs2)C3)c1-c1ccc(C(F)(F)F)cc1", "note": "[Compound 14]", "values": [{"measurement": "IC50", "setting": "[1]", "result": "> 30000", "unit": "nM"}, {"measurement": "Caco-2 (10-6 cm/sec)", "setting": "[2]", "result": "0 10-6 cm/sec"}, {"measurement": "IC50", "setting": "[3]", "result": 4400, "unit": "nM"}, {"measurement": "IC50", "setting": "[4]", "result": 230, "unit": "nM"}, {"measurement": "IC50", "setting": "[5]", "result": "> 30000", "unit": "nM"}]}, {"smiles": "COc1cccc(C(=O)Nc2ccc3c(c2)CCN(C(=O)OC(C)(C)C)C3)c1-c1ccc(C(F)(F)F)cc1", "note": "[Compound 15]", "values": [{"measurement": "IC50", "setting": "[1]", "result": "> 30000", "unit": "nM"}, {"measurement": "Caco-2 (10-6 cm/sec)", "setting": "[2]", "result": "0 10-6 cm/sec"}, {"measurement": "IC50", "setting": "[3]", "result": 60, "unit": "nM"}, {"measurement": "IC50", "setting": "[4]", "result": 6, "unit": "nM"}, {"measurement": "IC50", "setting": "[5]", "result": "> 30000", "unit": "nM"}]}, {"smiles": "COc1cccc(C(=O)Nc2ccc3c(c2)CCN(C(=O)Oc2ccc(F)cc2)C3)c1-c1ccc(C(F)(F)F)cc1", "note": "[Compound 16]", "values": [{"measurement": "IC50", "setting": "[1]", "result": "> 30000", "unit": "nM"}, {"measurement": "Caco-2 (10-6 cm/sec)", "setting": "[2]", "result": "0 10-6 cm/sec"}, {"measurement": "IC50", "setting": "[3]", "result": 11, "unit": "nM"}, {"measurement": "IC50", "setting": "[4]", "result": 2.3, "unit": "nM"}, {"measurement": "IC50", "setting": "[5]", "result": "> 30000", "unit": "nM"}]}, {"smiles": "CC(C)Oc1cccc(C(=O)Nc2ccc3c(c2)CCN(C(=O)Oc2ccccc2)C3)c1-c1ccc(C(F)(F)F)cc1", "note": "[Compound 17]", "values": [{"measurement": "IC50", "setting": "[1]", "result": "> 30000", "unit": "nM"}, {"measurement": "Caco-2 (10-6 cm/sec)", "setting": "[2]", "result": "0 10-6 cm/sec"}, {"measurement": "IC50", "setting": "[3]", "result": 16, "unit": "nM"}, {"measurement": "IC50", "setting": "[4]", "result": 0.7, "unit": "nM"}, {"measurement": "IC50", "setting": "[5]", "result": "> 30000", "unit": "nM"}]}]}
